Test results taken from ChEMBL document CHEMBL1130831, “Relationship between dihedral angles of N1 and C9 substituents in 1,4-benzodiazepines and dual cholecystokinin-A and -B antagonistic activities” (Bioorg Med Chem Lett, 1998).

Tests used:
[1] = biological target: T1, Cholecystokinin receptor type A (Rattus norvegicus) (UniProt P30551); assay: Compound was evaluated for the inhibition of […] I-CCK-8 binding at Cholecystokinin type A receptor in rat pancreatic membranes at 10 e -8 M; format: cell membranes; conditions: Membrane
T1 sequence (whole entry): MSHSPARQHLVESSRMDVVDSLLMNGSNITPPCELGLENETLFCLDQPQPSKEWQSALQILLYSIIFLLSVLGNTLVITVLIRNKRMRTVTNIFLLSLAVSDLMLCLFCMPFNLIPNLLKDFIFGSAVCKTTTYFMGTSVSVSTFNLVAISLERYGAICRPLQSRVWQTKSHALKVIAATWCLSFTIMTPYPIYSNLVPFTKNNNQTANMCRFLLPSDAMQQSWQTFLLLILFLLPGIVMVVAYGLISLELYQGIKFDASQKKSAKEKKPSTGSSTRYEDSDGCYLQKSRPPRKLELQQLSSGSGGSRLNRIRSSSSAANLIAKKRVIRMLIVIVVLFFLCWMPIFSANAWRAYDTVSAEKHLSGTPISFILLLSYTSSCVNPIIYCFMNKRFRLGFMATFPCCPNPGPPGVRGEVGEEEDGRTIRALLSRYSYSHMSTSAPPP

[2] = biological target: Cholecystokinin receptor (Homo sapiens) (UniProt P32239+P32238); assay: Ratio of inhibitory activity of CCK-A to CCK-B was reported.; format: protein assay
[3] = biological target: T2, Cholecystokinin receptor type A (Rattus norvegicus, UniProt P30551); assay: Compound was evaluated for the inhibition of […] I-CCK-8 binding at Cholecystokinin type A receptor in rat pancreatic membranes; format: cell membranes, Membrane
T2 sequence (P30551 whole entry): T1 sequence (whole entry)

[4] = Compound was evaluated for the inhibition of […] I-CCK-8 binding at Cholecystokinin type B receptor on guinea pig cerebral cortical membranes

Chain of Cholecystokinin receptor (Homo sapiens) (P32238 whole entry, looked up): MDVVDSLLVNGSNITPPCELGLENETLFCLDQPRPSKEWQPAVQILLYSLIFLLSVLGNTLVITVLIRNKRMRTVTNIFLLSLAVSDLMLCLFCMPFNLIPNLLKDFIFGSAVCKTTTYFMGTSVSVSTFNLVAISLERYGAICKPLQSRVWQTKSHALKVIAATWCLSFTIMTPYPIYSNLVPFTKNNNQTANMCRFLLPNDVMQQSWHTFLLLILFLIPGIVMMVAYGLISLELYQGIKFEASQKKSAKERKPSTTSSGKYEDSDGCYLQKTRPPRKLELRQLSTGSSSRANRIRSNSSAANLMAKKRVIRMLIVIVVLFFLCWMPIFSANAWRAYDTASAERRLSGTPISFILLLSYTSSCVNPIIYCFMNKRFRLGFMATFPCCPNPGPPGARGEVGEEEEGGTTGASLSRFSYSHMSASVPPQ
Chain of Cholecystokinin receptor (Homo sapiens) (P32239 whole entry, looked up): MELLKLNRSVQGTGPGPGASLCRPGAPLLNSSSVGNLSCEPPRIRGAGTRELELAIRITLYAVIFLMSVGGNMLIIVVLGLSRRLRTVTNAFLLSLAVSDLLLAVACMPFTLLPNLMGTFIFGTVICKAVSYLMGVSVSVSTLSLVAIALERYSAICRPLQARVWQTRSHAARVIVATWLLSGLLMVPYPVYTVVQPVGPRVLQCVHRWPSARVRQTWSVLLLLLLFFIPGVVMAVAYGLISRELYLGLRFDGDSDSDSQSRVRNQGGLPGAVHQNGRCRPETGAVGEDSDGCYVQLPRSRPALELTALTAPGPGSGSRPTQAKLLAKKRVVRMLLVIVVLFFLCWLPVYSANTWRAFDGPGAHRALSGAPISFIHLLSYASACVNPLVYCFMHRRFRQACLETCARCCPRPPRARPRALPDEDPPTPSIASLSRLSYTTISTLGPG

Row | Structure (SMILES) | Ratio [2] | IC50 [3] | other results
1 | CC(C)c1cccc2c1N(CC(=O)N1CC3CCC(CC3)C1)C(=O)C(NC(=O)Nc1cccc(-c3nn[nH]n3)c1)N=C2c1ccccc1F (centres undefined) |  |  | inhibition [1]: 12.2%
2 | O=C(Nc1cccc(-c2nn[nH]n2)c1)NC1N=C(c2ccccc2F)c2cccc(Cl)c2N(CC(=O)N2CC3CCC(CC3)C2)C1=O (centres undefined) | 20 |  | 
3 | CCc1cccc2c1N(CC(=O)N1CC3CCC(CC3)C1)C(=O)C(NC(=O)Nc1cccc(-c3nnn[nH]3)c1)N=C2c1ccccc1F (centres undefined) |  | 18 nM | 
4 | O=C(Nc1cccc(-c2nnn[nH]2)c1)NC1N=C(c2ccccc2F)c2ccccc2N(CC(=O)N2CC3CCC(CC3)C2)C1=O (centres undefined) |  | 62 nM | 
5 | O=C(Nc1cccc(-c2nn[nH]n2)c1)NC1N=C(c2ccccc2F)c2ccccc2N(CC(=O)N2CC3CCC(CC3)C2)C1=O (centres undefined) | 710 |  | 
6 | Cc1cccc2c1N(CC(=O)N1CC3CCC(CC3)C1)C(=O)C(NC(=O)Nc1cccc(-c3nn[nH]n3)c1)N=C2c1ccccc1F (centres undefined) | 21 |  | IC50 [4]: 0.68 nM
7 | O=C(Nc1cccc(-c2nnn[nH]2)c1)NC1N=C(c2ccccc2F)c2cccc(Cl)c2N(CC(=O)N2CC3CCC(CC3)C2)C1=O (centres undefined) |  | 13 nM | 
8 | CCc1cccc2c1N(CC(=O)N1CC3CCC(CC3)C1)C(=O)C(NC(=O)Nc1cccc(-c3nn[nH]n3)c1)N=C2c1ccccc1F (centres undefined) | 22 |  | 
